In patent US20230413819A1, “METHODS FOR CONTROLLING FLEA AND TICK INFESTATIONS IN A MAMMAL” (In the Bowl Animal Health, Inc., priority 2021, published 2023):

Tests used:
Ctenocephalides felis = assay: Efficacy of spinosyn per os to dogs against Ctenocephalides felis, comb counts of live adult fleas (Example 2); format: in vivo; settings: for percent reduction in live adult flea counts: by the day 14 comb count
From the text: (§1) Methods: A pool of 40 dogs are to be preliminarily infested with ˜100 unfed adult C. felis in order to produce a pool of dogs that can suitably sustain a reliable infestation rate of approximately 50% of live fleas over a 48-hour period. The dogs with the highest live flea counts are to be randomly allocated to 4 treatment groups (6 dogs per group) based on their pre-treatment flea counts from experimental infestations. The first treatment group is to be the control group and groups 2-4 are to be the test groups.
The dogs are to be housed individually during the study period and are to be fed a commercial dry dog food ration with ad libitum access to water.
Dogs in the control group are not to receive a spinosyn or any other flea control treatment. Each dog in test groups 2-4 is to be offered its daily ration (dry food) and the individual doses of liquid formulation are to be administered after the individual dog has eaten at least 25% of its total daily ration. After receiving the dose of a spinosyn the dogs are to be allowed to continue eating. This mimics incorporating the spinosyn in feed. Each dog in test groups 2-4 and the control group is to be experimentally infested with 100 unfed adult fleas on test days −1, 5, 12, 19, 28 and 35. Comb counts for live adult fleas are to be conducted on days 2, 7, 14, 21, 30 and 37. The final experimental infestation is to occur five days after the last daily dose of spinosyn.

C. felis = assay: Efficacy of spinosyn in medicated feed dosed at 0.5 mg/kg, comb counts of live adult fleas (Example 3); format: in vivo; settings: dogs
From the text: as §1, with “pool of dogs are” for “pool of 40 dogs are”, “pool of 18 dogs that” for “pool of dogs that”, “allocated to 3 groups (6” for “allocated to 4 treatment groups (6”, “and groups 2-3 are to” for “and groups 2-4 are to”
The dogs are to be housed individually during the study period and are to have ad libitum access to water.
There is to be an initial acclimation period of at least 4 days during which dogs in test groups 2 and 3 are to be transitioned from a standard certified commercial chow to an unmedicated version of the daily feed. During the acclimation period, the dogs are to be allowed 1 hour to consume the feed, after which the dogs' acceptance of the feed will be observed and recorded.
Dogs in the control group are not to receive a spinosyn or any other flea control treatment. On days 0-29, each dog in test groups 2 and 3 is to be offered its daily feed containing spinosyn for a period of 1 hour. On days 30-37 all dogs will be given regular dog food, without spinosyn, or a physiologically acceptable derivative thereof […]

Q: How did the “percent reduction in live adult flea counts” value (“percent reduction” below) (Ctenocephalides felis; Group 2, 0.25 mg/kg daily oral) turn out when spinosad was run?
A: Its value is 100%.

Q: What about the “efficacy (reduction in live adult flea counts)” value (Ctenocephalides felis; Group 3, 0.50 mg/kg daily oral days 0-29, day 37, after wash out period) of the same substance?
A: Its value is “over 98%”.

Q: And the “percent reduction” value (Ctenocephalides felis; Group 3, 0.50 mg/kg daily oral)?
A: The value was 100%.

Q: What about the “efficacy (reduction in live adult flea counts)” value (Ctenocephalides felis; Group 4, 1.0 mg/kg daily oral days 0-29, day 37, after wash out period) of the same substance?
A: The value was “over 98%”.

Q: What about the “percent reduction” value (Ctenocephalides felis; Group 4, 1.0 mg/kg daily oral) of the same substance?
A: Its value is 100%.

Q: And the “efficacy (reduction in live adult flea counts)” value (C. felis; Group 2, 0.5 mg/kg daily feed formulation 1, by the 14-day comb count)?
A: The value was “over 90%”.

Q: What about the “efficacy (reduction in live adult flea counts)” value (C. felis; Group 3, 0.5 mg/kg daily feed formulation 2, by the 14-day comb count) of the same substance?
A: The value was “over 90%”.
